# Assay results from patent US20100286186A1, “NOVEL DICARBOXYLIC ACID LINKED AMINO ACID AND PEPTIDE PRODRUGS OF OPIOIDS AND USES THEREOF” (Shire LLC, priority 2009, published 2010).
# Several values for one entry are separate records, joined by “and”; a condition that tells them apart may be missing. Equal values may be shown once.
# Tests used:
# [1] = Plasma pharmacokinetics of meptazinol dicarboxylate linked prodrugs after oral gavage to dogs; format: in vivo, dog; details: dog, 1 mg meptazinol base equivalents/kg; for Dog Cmax (plasma meptazinol) / Dog Cmax (plasma prodrug levels, in brackets): oral gavage of prodrug; for Dog Cmax (plasma meptazinol): meptazinol level; for Dog Cmax (plasma prodrug levels, in brackets): prodrug level, BLQ = below 0.5 ng/mL
# [2] = Stability of meptazinol dicarboxylate bridged amino acid prodrugs in simulated gastric and intestinal juice and pH 7.4 buffer; format: physicochemical; details: for 2 h stability in pH7.4 buffer (37° C.), Conversion to meptazinol: pH 7.4 buffer
# Text: Initially the inherent chemical and biological stability of various dicarboxylate bridged amino acid prodrugs of meptazinol, was investigated under the conditions prevailing in the GI tract. Premature hydrolysis of the prodrug in the gut lumen prior to absorption would reduce the opportunity for transient protection of the drug during its passage though the liver and the desired reduction in first pass metabolism.
# The remaining concentrations of the prodrug (and also drug released) were then assayed by HPLC. Additionally their chemical stability was evaluated in pH 7.4 buffer for 2 h 37° C.
# [3] = Plasma pharmacokinetics of meptazinol dicarboxylate linked prodrugs after oral gavage to cynomolgus monkeys; format: in vivo, cynomolgus monkey; details: 1 mg meptazinol base equivalents/kg; for Monkey Cmax (plasma meptazinol) / Monkey Cmax (plasma prodrug levels, in brackets): cynomolgus monkey, oral gavage of prodrug; for Monkey Cmax (plasma meptazinol): meptazinol level; for Monkey Cmax (plasma prodrug levels, in brackets): prodrug level, BLQ = below 0.5 ng/mL
# [4] = Comparative pharmacokinetics of oxycodone after oral administration to female Sprague Dawley rats; details: oral, 10 mg oxycodone free base equivalents/kg, median
# [5] = Comparative pharmacokinetics of oxycodone in the cynomolgus monkey after oral administration; details: for T>50%Cmax of oxycodone: oral
# gut motility in the rat = experiment: Charcoal propulsion test of GI motility in the rat; format: in vivo; details: oral; for delay of the passage of the charcoal meal (gut motility): 30 mg/kg or equimolar dose
# Experimental: Test treatments were administered to groups of up to 10 rats fasted overnight prior to the test.
# Test treatments were administered orally 60 minutes prior to a 2.0 mL oral dose of a 10% suspension of charcoal in 5% gum arabic. Thirty minutes after dosing with charcoal, the rats were sacrificed and the entire gastro-intestinal tract quickly and carefully removed. The distance the charcoal meal had traveled from the pyloric sphincter toward the caecum was measured and expressed as a percentage of both the total gut length and the length of the small intestine.
# [6] = In vitro stability of dicarboxylate amino acid ester prodrugs in simulated gastric and intestinal juice, distilled water and pH 10 buffer (HPLC); details: 37° C.
# [7] = Comparative oral bioavailability of oxycodone from various dicarboxylate bridged amino acid prodrugs in dogs (nine-way crossover); format: in vivo, dog; details: 1 mg/kg oxycodone free base, mean (±sd)
# [8] = Bioavailability of oxycodone, codeine and dihydrocodeine from their succinyl valine ester prodrugs in the dog (oral gavage, two-way crossover); details: dogs, oral gavage, 1 mg free base equivalents codeine/kg; median (n=5)
# Experimental: The characteristics of the test animals are set out in Table 10, below.
# Blood samples were taken at various times after administration and submitted to analysis for the parent drug and pro-drug using a validated LC-MS-MS assay. Pharmacokinetic parameters derived from the plasma analytical data were determined using Win Nonlin.
# [9] = simulated intestinal fluid, 2 h
# [10] = male cynomolgus monkeys, 1 mg oxycodone free base equivalents/kg, mean (n=5)
SMILES,Dog Cmax (plasma meptazinol) [1] [ng/mL],"Dog Cmax (plasma prodrug levels, in brackets) [1] [ng/mL]","2 h stability in pH7.4 buffer (37° C.), Conversion to meptazinol ([2]; 2 h) [%]","1 h stability in simulated gastric fluid (37° C.), Conversion to meptazinol [2] [%]","2 h stability in simulated intestinal fluid (37° C.), Conversion to meptazinol [2, 9] [%]",Monkey Cmax (plasma meptazinol) [3] [ng/mL],"Monkey Cmax (plasma prodrug levels, in brackets) [3]","T>50%Cmax of oxycodone [5, 10] [h]",delay of the passage of the charcoal meal (gut motility) (gut motility in the rat),further results
"CCC1(c2cccc(OC(=O)CC(C)(C)CC(=O)NCC(=O)O)c2)CCCCN(C)C1 (stereo not drawn) [Meptazinol-[3,3-dimethylglutaryl-glycine] ester]",0.5,29,2,4,4,1.1,18 ng/mL,–,–,–
CCC1(c2cccc(OC(=O)CCC(=O)N3CCC[C@H]3C(=O)O)c2)CCCCN(C)C1 (stereo partly drawn) [Meptazinol-[succinyl-(S)-proline] ester],0.7,36,4,4,4,2.0,16 ng/mL,–,–,–
"COc1ccc2c3c1O[C@H]1C(=O)CC[C@@]4(O)[C@@H](C2)N(C)CC[C@]314 [Oxycodone, oxycodone, reference compound]",–,–,–,–,–,–,–,1.8,52%,"T>50%Cmax of oxycodone [4]: 0.75 h; % change from vehicle-treated animals, small intestine (gut motility in the rat; 10 mg/kg): −15.6%; % change from vehicle-treated animals, total gut length (gut motility in the rat; 10 mg/kg): −16.0%; % change from vehicle-treated animals, small intestine (gut motility in the rat; 30 mg/kg): −52.2%; % change from vehicle-treated animals, total gut length (gut motility in the rat; 30 mg/kg): −52.2%; % change from vehicle-treated animals, small intestine (gut motility in the rat; 100 mg/kg): −75.5%; % change from vehicle-treated animals, total gut length (gut motility in the rat; 100 mg/kg): −76.5%"
"COc1ccc2c3c1O[C@H]1C(OC(=O)CCCC(=O)N[C@@H](CC(C)C)C(=O)O)=CC[C@@]4(O)[C@@H](C2)N(C)CC[C@]314 [Oxycodone-Glutaryl-Leu Enol Ester, oxycodone-[glutaryl-(S)-leucine] enol ester]",–,–,–,–,–,–,–,2.86,–,"Simulated gastric fluid (pH 1.1): % remaining after 2 h/37° C. ([6]; pH 1.1, 2 h): 98%; Simulated intestinal fluid (pH 6.8): % remaining after 2 h/37° C. ([6]; pH 6.8, 2 h): 79%; Cmax of intact prodrug ([5]; male cynomolgus monkeys, oral prodrug, 1 mg oxycodone free base equivalents/kg, individual monkeys 1-5): BLQ; T>50%Cmax of oxycodone ([5]; male cynomolgus monkeys, 1 mg oxycodone free base equivalents/kg, individual monkeys 1-5): 2.33 h and 2.40 h and 3.13 h and 4.66 h and 1.80 h; T>50%Cmax of oxycodone ([5]; male cynomolgus monkeys, 1 mg oxycodone free base equivalents/kg, mean (n=5), listed as OGLE): 2.9 h; prodrug levels in plasma ([5]; monkeys, oral prodrug): below the limit of quantification; T50% Cmax of oxycodone [7]: 3.4 (±0.7) h."
"COc1ccc2c3c1O[C@H]1[C@@H](O)C=C[C@H]4[C@@H](C2)N(C)CC[C@@]341 [codeine, reference compound]",–,–,–,–,–,–,–,–,greater than 30%,T>50%Cmax of codeine [8]: 1.2 h
CCC1(c2cccc(OC(=O)c3ccccc3C(=O)N[C@@H](Cc3ccccc3)C(=O)O)c2)CCCCN(C)C1.O=C(O)C(F)(F)F (stereo partly drawn) [meptazinol [phthalyl-(S)-phenylalanine]ester trifluoroacetate],9.1,71,72,3,30,–,BLQ,–,–,"systemic levels of meptazinol versus expected Cmax after the drug itself ([1]; oral gavage): improved systemic levels of meptazinol; degradation in 2 h in simulated intestinal fluid ([2]; simulated intestinal fluid, 2 h, 37° C.): ~30%; improvement in systemic levels of meptazinol ([3]; monkey, oral gavage): not seen in the monkey"
